The values below come from ChEMBL document CHEMBL1201862, “PubChem BioAssay data set” (2004).

Active and inactive are the calls of the source.

Experiment [1] in a line: inhibitors of firefly luciferase expression or activity, dose response, H4 neuroglioma cells, luminescence (AID 1990). In kind it is functional, cell-based.
Experiment [2] is described as follows: Luminescence Cell-Based Dose Response HTS to Identify Inhibitors of 5'UTR Stem-Loop Driven Prion Protein mRNA Translation in H4 Neuroglioblastoma Cells. [Related pubchem assays: 1827 (Project Summary), 1813 (Primary HTS)]. It counts as functional.
Experiment [3] in a line: inhibitors of SNCA 5'UTR-driven reporter translation, confirmation, H4 neuroglioma cells, luminescence (AID 1988). It counts as functional, cell-based.
The subject of the next experiment is H9c2. Briefly: cells. It counts as functional, cell-based. The settings on record: Rattus norvegicus, H9c2, Myocardium.
Experiment [4] deals with T1, Corticotropin-releasing factor receptor 2/Corticotropin-releasing factor-binding protein (Homo sapiens, UniProt P24387+Q13324).
T1 sequence (Q13324 whole entry): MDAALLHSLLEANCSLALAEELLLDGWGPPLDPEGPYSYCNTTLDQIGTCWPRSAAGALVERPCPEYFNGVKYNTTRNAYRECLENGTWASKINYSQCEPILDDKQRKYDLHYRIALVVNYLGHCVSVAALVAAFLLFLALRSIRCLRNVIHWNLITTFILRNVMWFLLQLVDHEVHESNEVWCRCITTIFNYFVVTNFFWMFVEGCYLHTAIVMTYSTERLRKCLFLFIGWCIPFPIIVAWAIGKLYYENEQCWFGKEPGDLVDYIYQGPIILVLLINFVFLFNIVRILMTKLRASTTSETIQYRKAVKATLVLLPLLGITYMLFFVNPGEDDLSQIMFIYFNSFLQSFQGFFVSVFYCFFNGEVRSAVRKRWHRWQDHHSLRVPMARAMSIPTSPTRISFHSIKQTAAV
T1 sequence (P24387 whole entry): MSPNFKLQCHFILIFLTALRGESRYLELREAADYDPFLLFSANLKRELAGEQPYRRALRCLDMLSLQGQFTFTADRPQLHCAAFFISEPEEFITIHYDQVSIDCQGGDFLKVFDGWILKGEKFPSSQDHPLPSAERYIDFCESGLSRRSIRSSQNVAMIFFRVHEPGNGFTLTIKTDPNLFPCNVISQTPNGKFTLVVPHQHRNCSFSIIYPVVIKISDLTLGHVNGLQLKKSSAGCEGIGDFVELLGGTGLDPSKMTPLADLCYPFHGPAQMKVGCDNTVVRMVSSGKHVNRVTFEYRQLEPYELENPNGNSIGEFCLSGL
Briefly: Dose Response confirmation of uHTS hits for small molecule antagonists of the CRF-binding protein and CRF-R2 receptor complex. In kind it is functional. The note with it: read-out: IC50_Mean.

For experiment [5], the target named is T1, Corticotropin-releasing factor receptor 2/Corticotropin-releasing factor-binding protein. Briefly: activators of CRF receptor 2 with binding protein – uHTS hits, confirmation (AID 602473). The settings on record: read-out: EC50_Mean. In kind it is functional.
In experiment [6] the target is T2, Heat shock factor protein 1 (Mus musculus, UniProt P38532).
T2 sequence (P38532 whole entry): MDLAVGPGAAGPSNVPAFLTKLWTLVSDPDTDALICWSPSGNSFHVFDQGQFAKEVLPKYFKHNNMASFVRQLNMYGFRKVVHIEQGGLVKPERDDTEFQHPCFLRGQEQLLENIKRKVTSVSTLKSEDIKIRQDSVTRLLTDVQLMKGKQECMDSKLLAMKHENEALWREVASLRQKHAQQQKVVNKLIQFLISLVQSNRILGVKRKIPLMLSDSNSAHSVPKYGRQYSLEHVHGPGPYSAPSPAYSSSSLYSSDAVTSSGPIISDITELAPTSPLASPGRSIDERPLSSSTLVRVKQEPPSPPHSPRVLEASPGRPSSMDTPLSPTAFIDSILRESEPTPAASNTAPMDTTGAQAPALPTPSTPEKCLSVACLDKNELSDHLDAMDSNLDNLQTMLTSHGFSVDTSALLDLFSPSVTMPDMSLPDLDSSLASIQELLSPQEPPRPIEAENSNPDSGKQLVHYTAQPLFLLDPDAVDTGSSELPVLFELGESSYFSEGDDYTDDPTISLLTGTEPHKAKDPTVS
Briefly: HSF1 potentiators in luciferase reporter cells, confirmation, cell-based, NIH3T3, luminescence, dose retest (AID 435004).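 Note: stress induced by proteasome inhibitor MG132 added 30 min after compound; luciferase reporter driven by HSF1 response element in NIH3T3 cells; actives raise luminescence as potentiators of the MG132 stress response.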 It counts as functional. On the technique in general: In a reporter assay the amount or activity of a reporter protein is the signal.

The target of experiment [7] is T3, Replicative DNA helicase DnaB (Mycobacterium tuberculosis, UniProt P9WMR3).
T3 sequence (P9WMR3 whole entry): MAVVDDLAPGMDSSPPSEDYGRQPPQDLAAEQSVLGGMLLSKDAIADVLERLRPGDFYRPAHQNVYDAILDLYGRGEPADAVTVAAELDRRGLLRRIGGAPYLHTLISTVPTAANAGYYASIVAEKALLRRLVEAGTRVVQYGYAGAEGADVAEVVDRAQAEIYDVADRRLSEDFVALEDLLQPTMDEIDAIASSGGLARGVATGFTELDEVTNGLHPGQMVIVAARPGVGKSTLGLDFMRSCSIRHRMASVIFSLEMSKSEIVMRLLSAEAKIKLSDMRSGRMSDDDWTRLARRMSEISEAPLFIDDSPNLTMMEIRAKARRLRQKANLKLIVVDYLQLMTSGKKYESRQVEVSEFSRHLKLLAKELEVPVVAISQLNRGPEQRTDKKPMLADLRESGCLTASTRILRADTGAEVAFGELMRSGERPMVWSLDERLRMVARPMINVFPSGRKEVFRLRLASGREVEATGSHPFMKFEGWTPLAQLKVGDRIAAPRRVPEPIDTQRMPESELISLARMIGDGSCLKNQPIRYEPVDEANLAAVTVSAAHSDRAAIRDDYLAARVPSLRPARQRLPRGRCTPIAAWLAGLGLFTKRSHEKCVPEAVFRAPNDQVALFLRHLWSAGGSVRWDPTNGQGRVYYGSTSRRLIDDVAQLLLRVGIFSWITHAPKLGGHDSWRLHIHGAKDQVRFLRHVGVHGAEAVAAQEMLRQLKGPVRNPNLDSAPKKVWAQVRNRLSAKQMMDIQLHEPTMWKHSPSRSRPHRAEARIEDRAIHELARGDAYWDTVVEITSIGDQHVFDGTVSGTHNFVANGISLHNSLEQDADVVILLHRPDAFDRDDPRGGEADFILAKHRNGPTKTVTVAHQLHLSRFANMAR
Put plainly: DnaB intein splicing inhibitors, dose response, biochemical, cell-free fluorescence (AID 449749). In kind it is functional.

Another experiment addresses T4, Protein RecA (Mycobacterium tuberculosis, UniProt P9WHJ3).
T4 sequence (P9WHJ3 whole entry): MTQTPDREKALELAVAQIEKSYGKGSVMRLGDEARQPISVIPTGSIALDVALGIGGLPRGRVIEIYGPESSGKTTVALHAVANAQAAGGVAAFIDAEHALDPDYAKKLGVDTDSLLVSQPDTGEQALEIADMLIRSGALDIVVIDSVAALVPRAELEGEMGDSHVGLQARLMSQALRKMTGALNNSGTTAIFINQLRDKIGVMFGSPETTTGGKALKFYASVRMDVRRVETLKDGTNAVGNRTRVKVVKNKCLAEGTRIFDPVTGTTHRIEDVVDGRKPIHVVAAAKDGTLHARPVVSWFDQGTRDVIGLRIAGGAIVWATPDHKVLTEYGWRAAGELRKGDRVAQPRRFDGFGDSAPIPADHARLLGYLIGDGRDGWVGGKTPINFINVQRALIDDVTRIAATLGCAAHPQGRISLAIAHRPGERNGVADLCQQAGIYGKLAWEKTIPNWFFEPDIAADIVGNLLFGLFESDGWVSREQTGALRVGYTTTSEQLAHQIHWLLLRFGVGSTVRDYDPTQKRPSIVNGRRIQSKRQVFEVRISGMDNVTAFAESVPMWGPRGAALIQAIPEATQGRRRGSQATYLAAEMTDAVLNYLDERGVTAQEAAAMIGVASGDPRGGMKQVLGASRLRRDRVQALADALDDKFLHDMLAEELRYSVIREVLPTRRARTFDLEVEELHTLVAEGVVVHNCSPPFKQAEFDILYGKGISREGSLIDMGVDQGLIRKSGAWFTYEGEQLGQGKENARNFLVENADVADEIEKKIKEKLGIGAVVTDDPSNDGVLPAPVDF
Put plainly: Fluorescence Cell-Free Homogeneous Dose Retest to Identify Inhibitors of RecA-Intein Splicing Activity. [Related pubchem assays (depositor defined):AID2097, AID2223, AID489010, AID492950]. In kind it is functional.

The target of experiment [8] is T5, Ubiquitin-conjugating enzyme E2 N (Homo sapiens, UniProt P61088).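 Note: Dose-response confirmation in a TR-FRET assay detecting UBC13-driven polyubiquitin chain formation, inhibition measured.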
T5 sequence (P61088 whole entry): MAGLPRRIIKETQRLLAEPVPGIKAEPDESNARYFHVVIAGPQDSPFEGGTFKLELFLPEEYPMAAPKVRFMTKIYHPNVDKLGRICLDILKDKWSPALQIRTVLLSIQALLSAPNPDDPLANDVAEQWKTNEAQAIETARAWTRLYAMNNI
It counts as functional.

The next experiment deals with Paired box protein Pax-8 (Homo sapiens, UniProt Q06710). Put plainly: inhibitors of PAX8-driven TPO luciferase reporter, dose response, RMG-I cells, cherry-pick (AID 687027).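 Note: luciferase reporter driven by Pax8 target thyroperoxidase promoter measured by SteadyGlo luminescence.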 It counts as functional, cell-based.
A short description of experiment [9]: HEp-2 cell cytotoxicity, dose response, cytotoxicity control for RSV inhibitor project, HTS (AID 2410). It counts as functional. The settings on record: human respiratory syncytial virus.

Sequence of Paired box protein Pax-8 (Q06710 whole entry): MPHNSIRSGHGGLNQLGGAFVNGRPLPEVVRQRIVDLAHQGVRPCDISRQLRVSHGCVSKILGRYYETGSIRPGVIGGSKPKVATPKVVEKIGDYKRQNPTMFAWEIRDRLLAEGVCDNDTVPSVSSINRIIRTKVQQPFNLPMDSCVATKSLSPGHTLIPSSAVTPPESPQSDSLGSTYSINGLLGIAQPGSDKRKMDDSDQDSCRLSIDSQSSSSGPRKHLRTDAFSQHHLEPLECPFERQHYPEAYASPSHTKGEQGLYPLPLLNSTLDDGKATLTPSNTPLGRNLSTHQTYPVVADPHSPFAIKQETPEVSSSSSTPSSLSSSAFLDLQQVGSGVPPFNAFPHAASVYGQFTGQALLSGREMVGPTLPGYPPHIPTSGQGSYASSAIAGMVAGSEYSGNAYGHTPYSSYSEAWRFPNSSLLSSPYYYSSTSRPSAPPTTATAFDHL

On to `NS(=O)(=O)c1ccc(CCNC(=O)c2ccc([N+](=O)[O-])cc2[N+](=O)[O-])cc1`, for which the EC50 in [1], in experiment [2] and in experiment [3] was > 120 µM (not active) each time.
Consider `Cc1c(O)c(CN2CCCCC2)cc2c1oc(=O)c1ccccc12`, for which the results for the IC50 (in the experiment on H9c2; in [4]) were 6.18 µM (active) and > 47.1 µM (inactive), respectively. In [5], the EC50 is > 53 µM (inactive).
Regarding `CCOCCn1ccc2c(OCC(=O)Nc3cc(OC)ccc3OC)cccc2c1=O`, the IC50 in the experiment with H9c2 is > 79 µM (inactive).
Turning to `Cc1sc2nc(C3CC3)nc(SCC(=O)N3CCc4ccccc4C3)c2c1C`, the EC50 in experiment [6] was 28.6 µM (active).
For `CCN(CC)S(=O)(=O)c1ccc(N2CCOCC2)c(NC(=O)c2cc(-c3ccccn3)nc3ccccc23)c1`, the IC50 with H9c2 is > 79 µM (inactive).
Usually AC50 stands for the concentration giving half of the maximal activity seen. Take `O=C1NCCCC2c3c(cc(Br)c(O)c3Br)OC12N1CCCCC1` (stereo unspecified): the AC50 in experiment [7] was 32.1 µM (active). Moreover, the EC50 on Protein RecA was 5.46 µM (active).
Turning to `COc1ccccc1C1C(C#N)=C(N)Oc2c1c(-c1ccccc1)nn2-c1ccccc1` (stereo unspecified), the AC50 in experiment [7] was 9.85 µM (active). In addition, the EC50 at Protein RecA is 4.49 µM (active).
With `COc1ccccc1CN1CCSCC1`, in experiment [7], the concentration at half-maximal activity (AC50) is 13.2 µM (active). For the same molecule, the EC50 on Protein RecA was 5.08 µM (active).
On the same counts, the results for `Fc1ccc(Nc2nc(Oc3ccccc3F)nc(N3CCCC3)n2)cc1` are 3.2 µM (active) and 0.946 µM (active).
With `CCCN(CC(=O)Nc1ccccc1C)C(=O)Cc1nnc(O)c2ccccc12`, the IC50 in the experiment with H9c2 was > 79 µM (inactive).
With `Cc1c(Br)c(C(=O)NNC(=O)c2ccc(C(C)(C)C)cc2)nn1C`, the IC50 in experiment [8] is > 20 µM (inactive).
For `COc1ccc(OC)c(C2C(C#N)=C(N)Oc3c2c(C)nn3-c2ccc(C)cc2)c1` (stereo unspecified), in experiment [7], the AC50 was > 380 µM (inactive). The EC50 at Protein RecA is 4.91 µM (active).
Take `Cc1ccc(/C=C2\SC(N3CCN(C(c4ccccc4)c4ccccc4)CC3)=NC2=O)o1`: in experiment [7], the AC50 is > 380 µM (inactive). Besides, the EC50 at Protein RecA is 49.1 µM (active).
On to `COc1cccc(/C=C2/NC(=O)NC2=O)c1OCC(=O)Nc1ccccc1`, for which the EC50 in experiment [1], in [2] and in experiment [3] was > 120 µM (not active) each time.
Take `CC(C)(C)OC(=O)N1CCC[C@H]1c1nnc(SCC(=O)Nc2ccc(Br)cc2)o1`: the IC50 in the experiment with H9c2 was > 79 µM (inactive).
Regarding `COC(=O)c1[nH]c2ccc(C)cc2c1NC(=O)C1=COCCO1`, the EC50 in experiment [1], in experiment [2] and in experiment [3] was > 120 µM (not active) each time.
For the molecule `Cn1nnnc1Sc1ncnc2scc(-c3ccccc3Cl)c12`, the AC50 at Paired box protein Pax-8 is 2.42 µM (active).
Consider `N#Cc1cc(-c2ccccc2)cnc1Sc1ccccc1`, for which the EC50 in experiment [6] is > 260 µM (inactive).
On to `CN(C)C(CNC(=O)c1coc2ccccc2c1=O)c1ccccc1` (stereo unspecified), for which, in [8], the IC50 was > 20 µM (inactive).
For `Cn1c(C(=O)NCCOc2ccccc2Cl)cc(=O)n(C)c1=O`, the EC50 in experiment [1], in [2] and in [3] was > 120 µM (not active) in each case.
A word on the CC50: it is the concentration giving 50% cytotoxicity. As for `Cc1ccc2nc(-c3ccc(NC(=O)CCS(=O)(=O)c4ccccc4)cc3)sc2c1`, in [9], the CC50 was 37.3 µM (active). Also, the EC50 in [2] was 6.83 µM (active); in [3] it was 6.26 µM (active).
`C[C@@H]1CN([C@@H](C)CO)C(=O)c2cc(NC(=O)Nc3ccccc3)ccc2O[C@H]1CN(C)C(=O)Nc1cccc2ccccc12`: the IC50 in the experiment with H9c2 is 13.9 µM (active).
On to `COc1ccc(OC)c(Nc2nc(N)c([N+](=O)[O-])c(N3CCOCC3)n2)c1`, for which the IC50 in the experiment on H9c2 was 17.7 µM (active).
As for `COc1ccc(C(=O)COc2ccccc2C(N)=O)cc1`, the IC50 with H9c2 was > 79 µM (inactive).
For the molecule `COC(=O)c1ccc(Cn2c(C)c(C(=O)NCc3cccs3)sc2=O)o1`, the IC50 in the experiment with H9c2 is 12.1 µM (active).
On to `COc1ccc(/C=N/NC(=O)c2cc(-c3ccc4c(c3)OCO4)[nH]n2)cc1OC`, for which the IC50 in the experiment with H9c2 is > 79 µM (inactive).
Consider `COC(=O)Cc1c(C)[nH]n(-c2cc(Cl)cc(Cl)c2)c1=O`, for which the AC50 in experiment [7] was 11 µM (active). In addition, at Protein RecA, the EC50 is 16.9 µM (active).
